1 compound from patent US20120100189A1 (Teva Pharmaceutical Industries Ltd., priority 2009, published 2012) can be followed below.

The conditions of this data set: non-polar organic solvents such as hexane toluene and ethylacetate.

`C#CCN[C@@H]1CCc2ccccc21` [Rasagiline base]: the “solubility in non-polar organic solvents” value is reported as “very soluble”.
